Patent publication US4670469A, “Hydroxamic acid and pharmaceutical preparations containing the same” (VEB Arzneimittelwerk Dresden, priority 1983, dated 1987)
“And” between values parts separate entries of the source, which are not always exact repeats. Identical values can stand only once.

System: histamine-induced bronchoconstriction in guinea pigs
Test: Inhibition of histamine-induced bronchoconstriction in guinea pigs in vivo
Experimental: Accordingly, this complete animal model is called upon for further experimental determination of the anti-asthmatic activity of compounds of Formula I. The following describes a representative experiment with salicylhydroxamic acid (SHAM) in […] male guinea pigs. SHAM is applied in a dose of 95 mg/kg body weight; this dose lies a power of ten below the determined values for acute toxicity (LD50 -value).
After urethane narcosis, a flexible catheter is introduced into the V. jugularis dext. of each animal. After a tracheotomy a tracheotubular needle is inserted for respiration. Then, after muscle relaxation with Pavulon, mechanical respiration follows in a Body-Plethysmograph (16 min^-1, I/E=1/1, pI =20 cmH2 O; Muller et al., 1976; Oddoy et al., 1982).
Over a tubular flesh needle at the outwardly led tracheotubular needle, the breath volume per draw of breath is measured by means of a pneumotachograph. The values are separately integrated and registered with a light recorder.
After 3 minutes calm breathing with registration of the parameter, three animals are dosed each with 2.5 ml SHAM-solution (isotonic, 37° C., 0.1M), i.v. (SHAM was dissolved in water directly before the test by heating, and the solution was cooled quickly in an 37° C. water bath.)
After 5 minutes further observation there follows the delivery of 5 μg/kg KM Histamine i.v. for providing a submaximal bronchospasm. After a further 5 minutes, 50 μg/kg KM Histamine are injected i.v. This leads according to experience to a fast, complete bronchial spasm ("silent chest"). After registration of the breath volume over a further 5 minutes, the test is completed.
In 3 animals serving as control group, with otherwise analogous procedure, instead of SHAM, 2.5 ml isotonic NaCl-solution are applied.
The calm- and the 5-minute values are mean values (in cm amplitude) from each 5 draws of breath.
The values after the Histamine injections represent the draw of breath having the smallest volume (3rd to 5th draw of breath after injection).

[1] = individual animals, draw of breath having the smallest volume, listed as SHAM
[2] = individual animals, listed as SHAM

In the case of `O=C(NO)c1ccccc1O` [salicylhydroxamic acid], the “volume change, after 5 min” value (average value for n = 3, 5 min after first histamine injection) is reported as “+7%”, the “volume change, after 5 min” value (average value for n = 3, 5 min after second histamine injection) is reported as -20% and the “volume change, after 5 min” value (average value for n = 3, after SHAM i.v.) is reported as “+7.7%”. For the same compound, the “volume change, after 5 μg/kg Histamine” value (average value for n = 3, first histamine injection) was -18%, the “volume change, after 5 μg/kg Histamine” value (average value for n = 3, second histamine injection) was -68.9% and the “breath volume after i.v. injection” value (before histamine) was “insignificant rise”. For the same compound, the “V-5 min after SHAM (breath volume change)” value (individual animals, 2.5 ml 0.1M SHAM i.v., cm amplitude) was “+0.1 cm and +0.2 cm and +0.45 cm”, the “volume change, after 5 min” value (individual animals, 5 min after first histamine injection, listed as SHAM) was “+5% and +10% and +7.2%” and the “volume change, after 5 min” value (individual animals, 5 min after second histamine injection, listed as SHAM) was -04% and -22% and -35%. For the same compound, the “V after 5 μg Hist. i.v.” value [1] was -0.4 cm and -2.2 cm, the “V after 50 μg Hist. i.v.” value [1] was -2.4 cm and -4.4 cm and -1.6 cm and the “volume change, after 5 μg/kg Histamine” value (individual animals, first histamine injection, listed as SHAM) was -8% and -48% and 0%. The “V-5 min thereafter (after 5 μg Hist.)” value [2] was “+0.26 cm and +0.48 cm and +0.19 cm”, the “V-5 min thereafter (after 50 μg Hist.)” value [2] was -0.2 cm and -1.0 cm and -0.9 cm and the “volume change, after 5 min” value (individual animals, percent of the starting draw volume, after SHAM i.v.) was “+2% and +4% and +17%”. The “bronchial spasm after histamine injections” value (pre-treated animals versus control group) was “smaller bronchial spasm than the animals of the control group” and the “spontaneous regression of histamine induced bronchial spasm” value (treated animals versus control group) was “more quickly and more extensively than in the control group”.
